#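 Where inhibition never reached the appropriate level, the endpoint shown equals the highest concentration tested. Otherwise, values were interpolated linearly from a five-concentration, 48-hour dose response in 96-well plates. At the GI50, growth is halved. The concentration for full growth arrest is given as TGI.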
# Legend:
# Experiment in all cases: inhibition of tumour cell growth, NCI panel, 48 h
# IGROV1 ovarian = test system: IGROV1 ovarian
# SF-268 CNS = test system: SF-268 CNS
# SF-295 CNS = test system: SF-295 CNS
# CCRF-CEM leukemia = test system: CCRF-CEM leukemia
# SR leukemia = test system: SR leukemia
# A549 NSCLC = test system: A549 NSCLC
# NCI-H460 lung = test system: NCI-H460 lung
# SK-MEL-5 melanoma = test system: SK-MEL-5 melanoma
# OVCAR-3 ovarian = test system: OVCAR-3 ovarian
# MDA-MB-435 = test system: MDA-MB-435
compound,measurement,setting,value
N#Cc1cccc(C2SCc3nc4ccccc4n32)c1 (stereo not drawn),TGI,IGROV1 ovarian,> 100 µM
same,TGI,SF-268 CNS,> 100 µM
same,TGI,SF-295 CNS,> 100 µM
same,TGI,CCRF-CEM leukemia,> 100 µM
same,TGI,SR leukemia,> 100 µM
same,TGI,A549 NSCLC,> 100 µM
same,TGI,NCI-H460 lung,> 100 µM
same,TGI,SK-MEL-5 melanoma,65.2 µM
Cc1cc(Br)ccc1N=NC1C(=O)ON=C1c1ccccc1 (stereo not drawn),TGI,IGROV1 ovarian,> 100 µM
same,TGI,SF-268 CNS,> 100 µM
same,TGI,SF-295 CNS,> 100 µM
same,TGI,SR leukemia,> 100 µM
same,TGI,OVCAR-3 ovarian,> 100 µM
same,TGI,A549 NSCLC,> 100 µM
same,TGI,NCI-H460 lung,> 100 µM
same,TGI,SK-MEL-5 melanoma,> 100 µM
COc1cc(Br)c(C2OCCCO2)cc1OCc1ccccc1,TGI,IGROV1 ovarian,> 100 µM
same,TGI,SF-268 CNS,> 100 µM
same,TGI,SF-295 CNS,> 100 µM
same,TGI,CCRF-CEM leukemia,> 100 µM
same,TGI,OVCAR-3 ovarian,> 100 µM
same,TGI,A549 NSCLC,> 100 µM
same,TGI,NCI-H460 lung,> 100 µM
same,TGI,SK-MEL-5 melanoma,> 100 µM
CCn1c(O)c(C(=O)Nc2cccs2)c(=O)n(CC)c1=S,TGI,IGROV1 ovarian,60.9 µM
same,TGI,SF-268 CNS,44.4 µM
same,TGI,SF-295 CNS,35.6 µM
same,TGI,CCRF-CEM leukemia,> 100 µM
same,TGI,SR leukemia,> 100 µM
same,TGI,OVCAR-3 ovarian,32.2 µM
same,TGI,A549 NSCLC,49.8 µM
same,TGI,NCI-H460 lung,34.5 µM
same,TGI,SK-MEL-5 melanoma,38.5 µM
O=C(c1ccccc1)N1CCc2c([nH]c3ccccc23)C1,TGI,IGROV1 ovarian,> 100 µM
same,TGI,SF-295 CNS,> 100 µM
same,TGI,CCRF-CEM leukemia,> 100 µM
same,TGI,SR leukemia,> 100 µM
same,TGI,OVCAR-3 ovarian,> 100 µM
same,TGI,A549 NSCLC,> 100 µM
same,TGI,NCI-H460 lung,> 100 µM
same,TGI,SK-MEL-5 melanoma,47.6 µM
C/C(=N\NC(N)=S)c1ccc(Oc2ccccc2)cc1,TGI,IGROV1 ovarian,12.5 µM
same,TGI,SF-295 CNS,38.4 µM
same,TGI,CCRF-CEM leukemia,37.2 µM
same,TGI,OVCAR-3 ovarian,22.9 µM
same,TGI,A549 NSCLC,74.4 µM
same,TGI,NCI-H460 lung,42.6 µM
same,TGI,SK-MEL-5 melanoma,18.8 µM
BrC(/C=N/Nc1nnc(-c2ccccc2)c(-c2ccccc2)n1)C(Br)c1ccccc1 (stereo not drawn),TGI,IGROV1 ovarian,> 100 µM
same,TGI,SF-268 CNS,> 100 µM
same,TGI,SF-295 CNS,> 100 µM
same,TGI,CCRF-CEM leukemia,94.7 µM
same,TGI,OVCAR-3 ovarian,> 100 µM
same,TGI,A549 NSCLC,> 100 µM
same,TGI,NCI-H460 lung,> 100 µM
same,TGI,SK-MEL-5 melanoma,57.9 µM
O=c1[nH]c(-c2ccncc2)nc2sc3c(c12)CCCCCC3,GI50,IGROV1 ovarian,> 100 µM
same,TGI,IGROV1 ovarian,> 100 µM
same,GI50,SF-268 CNS,> 100 µM
same,TGI,SF-268 CNS,> 100 µM
same,GI50,CCRF-CEM leukemia,> 100 µM
same,TGI,CCRF-CEM leukemia,> 100 µM
same,GI50,OVCAR-3 ovarian,> 100 µM
same,TGI,OVCAR-3 ovarian,> 100 µM
same,GI50,A549 NSCLC,> 100 µM
same,TGI,A549 NSCLC,> 100 µM
same,GI50,NCI-H460 lung,> 100 µM
same,TGI,NCI-H460 lung,> 100 µM
same,GI50,SK-MEL-5 melanoma,> 100 µM
same,TGI,SK-MEL-5 melanoma,> 100 µM
same,GI50,MDA-MB-435,> 100 µM
same,TGI,MDA-MB-435,> 100 µM
O=c1ccn([C@@H]2C[C@H](CO)CS(=O)C2)c(=O)[nH]1 (stereo partly drawn),TGI,IGROV1 ovarian,> 100 µM
same,TGI,SF-268 CNS,> 100 µM
same,TGI,SF-295 CNS,> 100 µM
same,TGI,CCRF-CEM leukemia,> 100 µM
same,TGI,OVCAR-3 ovarian,> 100 µM
same,TGI,A549 NSCLC,> 100 µM
same,TGI,NCI-H460 lung,> 100 µM
same,TGI,SK-MEL-5 melanoma,> 100 µM
CCOc1ccc(/C=C/C(=O)c2sc(NNC(C)=O)nc2C)cc1,TGI,IGROV1 ovarian,> 100 µM
same,TGI,SF-268 CNS,> 100 µM
same,TGI,SF-295 CNS,> 100 µM
same,TGI,CCRF-CEM leukemia,> 100 µM
same,TGI,OVCAR-3 ovarian,> 100 µM
same,TGI,A549 NSCLC,> 100 µM
same,TGI,NCI-H460 lung,> 100 µM
same,TGI,SK-MEL-5 melanoma,> 100 µM
CC1SC(c2ccc(OCc3ccccc3)cc2)N(NC(=O)C(O)(c2ccccc2)c2ccccc2)C1=O (stereo not drawn),GI50,IGROV1 ovarian,2.4 µM
same,TGI,IGROV1 ovarian,11.5 µM
same,GI50,SF-268 CNS,3.66 µM
same,TGI,SF-268 CNS,15 µM
same,GI50,SF-295 CNS,1.78 µM
same,TGI,SF-295 CNS,4.53 µM
same,GI50,CCRF-CEM leukemia,2.1 µM
same,TGI,CCRF-CEM leukemia,5.69 µM
same,GI50,OVCAR-3 ovarian,2.36 µM
same,TGI,OVCAR-3 ovarian,6.1 µM
same,GI50,A549 NSCLC,4.68 µM
same,TGI,A549 NSCLC,20.8 µM
same,GI50,NCI-H460 lung,3.53 µM
same,TGI,NCI-H460 lung,12.9 µM
same,GI50,SK-MEL-5 melanoma,8.26 µM
same,TGI,SK-MEL-5 melanoma,20.7 µM
same,GI50,MDA-MB-435,3.52 µM
same,TGI,MDA-MB-435,13.8 µM
CCC[CH2][Sn]1([CH2]CCC)[O]C(=O)c2cccnc2[S]1,GI50,IGROV1 ovarian,11.2 µM
same,TGI,IGROV1 ovarian,23.5 µM
same,GI50,SF-295 CNS,3.19 µM
same,TGI,SF-295 CNS,12 µM
same,GI50,CCRF-CEM leukemia,0.058 µM
same,TGI,CCRF-CEM leukemia,1.02 µM
same,GI50,SR leukemia,1.4 µM
same,TGI,SR leukemia,5.65 µM
same,GI50,OVCAR-3 ovarian,3.49 µM
same,TGI,OVCAR-3 ovarian,12.5 µM
same,GI50,A549 NSCLC,16.8 µM
same,TGI,A549 NSCLC,31.6 µM
same,GI50,NCI-H460 lung,11.4 µM
same,TGI,NCI-H460 lung,23.6 µM
same,GI50,SK-MEL-5 melanoma,4.96 µM
same,TGI,SK-MEL-5 melanoma,17 µM
COc1ccc(Cc2c3cc(OC)c(OC)cc3cc[n+]2C)cc1,TGI,IGROV1 ovarian,> 69.4 µM
same,TGI,SF-268 CNS,> 27.5 µM
same,TGI,SF-295 CNS,> 24.7 µM
same,TGI,CCRF-CEM leukemia,> 100 µM
same,TGI,SR leukemia,> 100 µM
same,TGI,OVCAR-3 ovarian,36.2 µM
same,TGI,A549 NSCLC,> 46.5 µM
same,TGI,SK-MEL-5 melanoma,> 62.2 µM
C#CC[C@]12CC(=O)CC[C@H]1CC1(C2)OCCO1,TGI,IGROV1 ovarian,> 100 µM
same,TGI,SF-268 CNS,> 100 µM
same,TGI,CCRF-CEM leukemia,> 100 µM
same,TGI,SR leukemia,> 100 µM
same,TGI,OVCAR-3 ovarian,> 100 µM
same,TGI,A549 NSCLC,> 100 µM
same,TGI,NCI-H460 lung,> 100 µM
same,TGI,SK-MEL-5 melanoma,> 100 µM
Cc1nn(-c2ccccc2)c2c1[C@@H](C)[C@H]1CC3(CC4(C)C[C@@H]3C1(C)c1c(C)nn(-c3ccccc3)c1N4C)N2C (stereo partly drawn),GI50,IGROV1 ovarian,> 100 µM
same,TGI,IGROV1 ovarian,> 100 µM
same,GI50,SF-268 CNS,> 100 µM
same,TGI,SF-268 CNS,> 100 µM
COc1cc(CC2c3cc(OC)c(OC)cc3CCN2C)c(C(=O)O)cc1OC (stereo not drawn),TGI,SF-268 CNS,> 100 µM
same,TGI,SF-295 CNS,> 100 µM
same,TGI,CCRF-CEM leukemia,> 100 µM
same,TGI,SR leukemia,> 100 µM
same,TGI,OVCAR-3 ovarian,> 100 µM
same,TGI,A549 NSCLC,> 100 µM
same,TGI,SK-MEL-5 melanoma,> 100 µM
CC[C@H]1CNC(=O)CC1CC(=O)OC (stereo partly drawn),TGI,IGROV1 ovarian,> 100 µM
same,TGI,SF-268 CNS,> 100 µM
same,TGI,SF-295 CNS,> 100 µM
same,TGI,SR leukemia,> 100 µM
same,TGI,A549 NSCLC,> 100 µM
same,TGI,NCI-H460 lung,> 100 µM
same,TGI,SK-MEL-5 melanoma,> 100 µM
Cc1c(Cl)ccc2[s+]snc12,TGI,IGROV1 ovarian,> 100 µM
same,TGI,SF-268 CNS,62.8 µM
same,TGI,SF-295 CNS,> 100 µM
same,TGI,CCRF-CEM leukemia,82.6 µM
same,TGI,SR leukemia,> 100 µM
same,TGI,OVCAR-3 ovarian,> 100 µM
same,TGI,A549 NSCLC,> 100 µM
same,TGI,NCI-H460 lung,> 100 µM
same,TGI,SK-MEL-5 melanoma,52.1 µM
C[C@H](O)CCC(=O)c1ccoc1,TGI,IGROV1 ovarian,> 100 µM
same,TGI,SF-268 CNS,> 100 µM
same,TGI,SF-295 CNS,> 100 µM
same,TGI,CCRF-CEM leukemia,> 100 µM
same,TGI,SR leukemia,> 100 µM
same,TGI,OVCAR-3 ovarian,> 100 µM
same,TGI,A549 NSCLC,> 100 µM
same,TGI,NCI-H460 lung,> 100 µM
same,TGI,SK-MEL-5 melanoma,> 100 µM
Cc1nc2ccccc2c(=O)n1/N=C(\N=Nc1ccc(Cl)cc1)c1ccc(N(C)C)cc1,TGI,IGROV1 ovarian,> 100 µM
same,TGI,SF-268 CNS,> 100 µM
same,TGI,SF-295 CNS,> 100 µM
same,TGI,CCRF-CEM leukemia,> 100 µM
same,TGI,A549 NSCLC,> 100 µM
same,TGI,NCI-H460 lung,> 100 µM
same,TGI,SK-MEL-5 melanoma,> 100 µM
N#CC1(C2CC(=O)N(c3ccccc3)C2=O)CCCCC1=O (stereo not drawn),TGI,IGROV1 ovarian,> 100 µM
same,TGI,SF-268 CNS,> 100 µM
same,TGI,SF-295 CNS,> 100 µM
same,TGI,CCRF-CEM leukemia,> 100 µM
same,TGI,SR leukemia,> 100 µM
same,TGI,OVCAR-3 ovarian,> 100 µM
same,TGI,A549 NSCLC,> 100 µM
same,TGI,NCI-H460 lung,> 100 µM
same,TGI,SK-MEL-5 melanoma,> 100 µM
Nc1nc(-c2ccccn2)c(-c2ccc3ncccc3n2)s1,GI50,IGROV1 ovarian,> 25 µM
same,TGI,IGROV1 ovarian,> 25 µM
same,GI50,SF-268 CNS,> 25 µM
same,TGI,SF-268 CNS,> 25 µM
same,GI50,SF-295 CNS,> 25 µM
same,TGI,SF-295 CNS,> 25 µM
same,GI50,CCRF-CEM leukemia,> 25 µM
same,TGI,CCRF-CEM leukemia,> 25 µM
same,GI50,OVCAR-3 ovarian,> 25 µM
same,TGI,OVCAR-3 ovarian,> 25 µM
same,GI50,A549 NSCLC,> 25 µM
same,TGI,A549 NSCLC,> 25 µM
same,GI50,NCI-H460 lung,> 25 µM
same,TGI,NCI-H460 lung,> 25 µM
same,GI50,SK-MEL-5 melanoma,> 25 µM
same,TGI,SK-MEL-5 melanoma,> 25 µM
same,GI50,MDA-MB-435,> 25 µM
same,TGI,MDA-MB-435,> 25 µM

# Source: PubChem BioAssay (NCI)
